The results in this text go back to paper PMC6471485, “Selective Inhibitors of a Human Prolyl Hydroxylase (OGFOD1) Involved in Ribosomal Decoding” (Chemistry (Weinheim an Der Bergstrasse, Germany), 2019).

The IC50 is the concentration needed to halve the response being measured. A lower IC50 goes with higher potency.

Common to all, as to type: biochemical
The target in one assay is JARID1B (Homo sapiens, UniProt Q9UGL1). Briefly: JARID1B AlphaScreen-based assay. As for the experimental part: (§1) reactions were quenched after 4 min. KDM4A inhibition was tested as described previously using a formaldehyde dehydrogenase (FDH) assay.[9] JARID1B and JARID1C inhibition was tested as described previously using reported AlphaScreen-based assays.[10] MINA531-464 and NO66116-641 were cloned into pFB-LIC-Bse, and the N-terminal His-tagged proteins were produced in Sf9 insect cells. The MINA53 peptide substrate Rpl27a […]
(§2) (Gly31 – Pro49 […]) and the NO66 peptide substrate Rpl8
(§3) (Asn205 – Thr224 […]) were synthesized by Peptide Protein
Research Ltd (Fareham, Hampshire, UK) to >95% purity. IC50 determinations were performed in 384-well polypropylene plates (Greiner Bio One, Cat Number 781096), and compound dispenses were performed using an ECHO 550 acoustic dispenser (Labcyte, Sunnyvale, CA).
NO66 (diluted to 375 nM in 50 mM MES pH 7.0, 150 mM NaCl) and MINA53 (diluted to 187.5 nM in 50 mM HEPES pH 7.5, 50 mM NaCl) were dispensed (40 µL) into 384-well compound plates using a multidrop combi reagent dispenser (Thermo Scientific, Code 5840300) with a small tube plastic tip dispensing cassette (Thermo Scientific, Code 24073290).
NO66 and MINA53 were pre-incubated with compound for 15 minutes, and the enzyme reaction initiated by dispensing 10 µL of substrate solution [250 µM (NH4)2Fe(SO4)2, 500 µM sodium ascorbate, 25 µM 2OG, 25 µM peptide] in optimized enzyme buffer. […]
(Alpha assays give light when donor and acceptor beads are brought close together.)

The target of a further assay is T1, MINA53 (Homo sapiens, UniProt Q8IUF8).
T1 construct: 1-464 and NO66116-641 were cloned into pFB-LIC-Bse; His (N); made in house; host or cells: Sf9 insect cells
Description: MINA53 IC50 determination, RapidFire MS. As for the experimental part:
as §1, §2, §3
Research Ltd (Fareham, Hampshire, UK) to >95% purity. IC50 determinations were performed in 384-well polypropylene plates (Greiner Bio One, Cat Number 781096), and compound dispenses were performed using an ECHO 550 acoustic dispenser (Labcyte, Sunnyvale, CA). […]
RapidFire integrator software (Agilent). Percent conversion was calculated in Excel, and IC50 curves were generated using Prism v. […]
Assays consisted of enzyme (2 µM), inhibitor (200 µM), MnCl2 (50 µM), and SYPRO Orange (1:5000 dilution), all prepared in 50 mM HEPES, pH 7.5. […] An Opticon thermal cycler (MJ Research Inc) was used to control temperature and measure fluorescence. […]
CPMG Binding Experiments: Binding of the inhibitors to the proteins was monitored using Carr-Purcell-Meiboom-Gill (CPMG)-edited 1H spectra. […]

The target in the next assay is T2, PHD2181-426 (Homo sapiens, UniProt Q9GZT9).
T2 construct: 181-426 (1 µM) was
Description: PHD2 inhibition assay: hydroxylation of HIF-1a CODD peptide by MALDI-TOF MS. Here is the method:
OGFOD1 inhibition assays were performed by determining the extent of hydroxylation of a 20mer fragment of human ribosomal protein S23 (RPS23) containing residues 51-70 (H2N- […]
-CONH2) by matrix-assisted laser desorption/ionization time-of-flight mass spectrometry (MALDI-TOF MS) using a Waters Micromass MALDI micro MX mass spectrometer and MassLynx 4.1, as previously described.[7,8] The optimized hydroxylation assay involved incubation of OGFOD1 (1 µM) with inhibitor (1 % v/v in DMSO) in the presence of (NH4)2Fe(SO4)2 (50 µM), the disodium salt of 2-oxoglutarate (25 µM), […]
OGFOD1 was pre-incubated with inhibitor for 5 min before initiation of the reaction via the addition of the other reagents. Reactions were quenched with formic acid (1 % v/v) after 15 min. Samples were prepared for MALDI using α-cyano-4-hydrocinnamic acid (CHCA; prepared in 50 % acetonitrile) as a matrix. Dose-responses were assessed in 8-point triplicates, normalized to a no enzyme negative control and a no inhibitor positive control. Non-linear regression analysis was performed using Prism (GraphPad).
PHD2181-426 inhibition assays were performed by determining the extent of hydroxylation of a HIF-1a CODD peptide substrate (HIF-1a residues 556-574), using MALDI-TOF MS as described with OGFOD1.[8] The optimized hydroxylation assay involved incubation of PHD2181-426 (1 µM) with inhibitor (1 % v/v in DMSO) in the presence of (NH4)2Fe(SO4)2 (10 µM), the disodium salt of 2-oxoglutarate (60 µM), sodium ascorbate (100 µM), and HIF-1aCODD 556-574 (50 µM) in HEPES (50 mM, pH 7.5) at 37 °C for 15 min. The FIH assay employed MALDI-TOF MS detection of hydroxylation. Reactions consisted of FIH […]
(50 nM), ankyrin peptide (50 µM; […]), the disodium salt of 2- […]
oxoglutarate (100 µM), sodium ascorbate (100 µM), and (NH4)2Fe(SO4)2 (10 µM), and […]

T2 sequence (Q9GZT9 181-426 limits assumed): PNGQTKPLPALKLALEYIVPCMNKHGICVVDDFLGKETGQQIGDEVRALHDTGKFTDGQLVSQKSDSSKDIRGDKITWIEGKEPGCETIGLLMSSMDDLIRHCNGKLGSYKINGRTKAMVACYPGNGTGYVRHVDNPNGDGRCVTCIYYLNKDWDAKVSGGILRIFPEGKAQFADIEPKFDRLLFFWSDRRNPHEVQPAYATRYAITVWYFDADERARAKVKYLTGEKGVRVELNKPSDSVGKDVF
T1 sequence (Q8IUF8 1-464 limits assumed): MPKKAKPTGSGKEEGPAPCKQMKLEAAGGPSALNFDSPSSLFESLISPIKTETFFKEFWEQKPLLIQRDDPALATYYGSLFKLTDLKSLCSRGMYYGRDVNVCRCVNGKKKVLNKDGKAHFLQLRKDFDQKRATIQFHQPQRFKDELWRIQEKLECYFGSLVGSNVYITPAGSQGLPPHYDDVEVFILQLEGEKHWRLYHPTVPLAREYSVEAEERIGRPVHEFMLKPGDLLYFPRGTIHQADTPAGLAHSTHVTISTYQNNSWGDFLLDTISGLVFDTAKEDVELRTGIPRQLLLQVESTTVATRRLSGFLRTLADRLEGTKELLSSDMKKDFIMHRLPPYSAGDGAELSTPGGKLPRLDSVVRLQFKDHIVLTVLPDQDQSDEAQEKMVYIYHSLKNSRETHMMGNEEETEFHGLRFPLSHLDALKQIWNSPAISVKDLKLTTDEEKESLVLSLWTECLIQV
Chain of JARID1B (Q9UGL1 whole entry): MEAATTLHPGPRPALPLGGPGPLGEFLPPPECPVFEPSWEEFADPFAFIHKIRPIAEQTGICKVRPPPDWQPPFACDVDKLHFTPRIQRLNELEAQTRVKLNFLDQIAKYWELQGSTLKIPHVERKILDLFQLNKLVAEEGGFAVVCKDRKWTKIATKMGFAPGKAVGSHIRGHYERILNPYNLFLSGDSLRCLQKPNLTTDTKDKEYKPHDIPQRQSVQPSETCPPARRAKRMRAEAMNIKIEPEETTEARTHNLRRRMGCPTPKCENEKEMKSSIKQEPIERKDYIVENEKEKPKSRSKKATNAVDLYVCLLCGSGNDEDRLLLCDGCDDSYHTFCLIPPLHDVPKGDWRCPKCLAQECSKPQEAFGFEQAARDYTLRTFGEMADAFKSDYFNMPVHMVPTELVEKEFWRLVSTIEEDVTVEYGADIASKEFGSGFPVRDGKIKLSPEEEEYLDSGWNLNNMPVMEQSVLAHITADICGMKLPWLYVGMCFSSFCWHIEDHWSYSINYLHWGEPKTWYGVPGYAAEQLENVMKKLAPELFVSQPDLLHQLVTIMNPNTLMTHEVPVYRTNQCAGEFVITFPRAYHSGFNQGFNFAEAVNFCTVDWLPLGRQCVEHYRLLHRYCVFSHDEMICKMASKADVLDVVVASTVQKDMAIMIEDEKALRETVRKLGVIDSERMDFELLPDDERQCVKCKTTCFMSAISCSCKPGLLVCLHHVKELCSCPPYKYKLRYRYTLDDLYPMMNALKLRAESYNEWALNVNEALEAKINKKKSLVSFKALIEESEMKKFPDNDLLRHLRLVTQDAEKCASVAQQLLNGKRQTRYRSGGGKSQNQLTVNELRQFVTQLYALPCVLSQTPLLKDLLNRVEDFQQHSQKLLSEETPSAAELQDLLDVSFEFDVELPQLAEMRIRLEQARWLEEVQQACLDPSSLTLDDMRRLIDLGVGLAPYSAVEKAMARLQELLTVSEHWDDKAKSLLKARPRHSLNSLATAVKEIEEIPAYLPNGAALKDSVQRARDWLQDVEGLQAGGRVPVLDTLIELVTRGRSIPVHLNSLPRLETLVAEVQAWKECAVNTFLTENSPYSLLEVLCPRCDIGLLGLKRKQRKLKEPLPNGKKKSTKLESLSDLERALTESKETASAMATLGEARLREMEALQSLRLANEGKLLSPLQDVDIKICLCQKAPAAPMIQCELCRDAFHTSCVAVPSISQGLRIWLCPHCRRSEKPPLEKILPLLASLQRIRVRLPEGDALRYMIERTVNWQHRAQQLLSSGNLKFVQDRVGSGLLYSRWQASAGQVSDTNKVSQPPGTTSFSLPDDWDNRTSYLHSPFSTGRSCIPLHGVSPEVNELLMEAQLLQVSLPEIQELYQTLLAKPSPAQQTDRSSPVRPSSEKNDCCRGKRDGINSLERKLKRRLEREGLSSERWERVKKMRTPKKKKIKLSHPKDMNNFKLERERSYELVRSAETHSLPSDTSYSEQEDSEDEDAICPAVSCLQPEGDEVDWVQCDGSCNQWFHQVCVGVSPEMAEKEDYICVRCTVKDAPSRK

For the compound `Cn1c(O)c(C(=O)CCc2cccs2)c(=O)n(C)c1=O` [compound 42], the IC50 against JARID1B, against MINA53 and against PHD2181-426 was greater than 100 µM each time.

In the case of `Cn1c(O)c(C(=O)CCc2ccccc2)c(=O)n(C)c1=O` [compound 26], the IC50 against JARID1B, at MINA53 and against PHD2181-426 was greater than 100 µM throughout. Moreover, the “inhibition of PHD2 hydroxylation activity, in words” value on PHD2181-426 (inhibitor 100 µM, PHD2181-426 1 µM (Figures S2, S8)) is given as “Lack of inhibition”.
